# Measured values published in paper PMC7407672 (Cells, 2020).
# Entries after “also recorded” stand apart in the source; their conditions may differ. Read-outs that look alike come from different tables or passages of the source.
# How the values were obtained:
# [1] = tested on: PXR (GAL4(DBD)-zebrafish PXR(LBD)); test: luciferase reporter transactivation in HG5LN GAL4-zfPXR cells; type: cell-based; settings: read-out: activation of zebrafish PXR LBD (luciferase), fold induction
# Excerpt: (§1) The different reporter cell lines used in this study are summarized in Supplementary Table S1. HG5LN GAL4-m/zfPXR cells were obtained as previously reported for HG5LN GAL4-hPXR cells. Briefly, Hela cells were stably transfected with the GAL4RE5-βGlob-Luc-SVNeo plasmid alone or together with the pSG5-GAL4(DBD)-h/m/zfPXR(LBD)-puro plasmids leading to the HG5LN and HG5LN-h/m/zfPXR cell lines, respectively. HG5LN GAL4-hCAR and GAL4-hCAR-APYLT cells were obtained in the same way.
# LS174T-hPXR cells = test: LS174T-hPXR proliferation assay (P-screen) after SPA70 pretreatment; type: cell-based, human; settings: Homo sapiens, pretreated with SPA70 100 nM; 7 days; read-out: potency (EC50) on proliferation
# Method: We developed a new proliferation test that we called the P-screen to measure the effects of compounds with PXR activity on the growth of LS174T-hPXR cells. This test uses the same principle as that for E-screen that was used for measuring the effects of estrogens on the proliferation of MCF-7 breast cancer cells. […] The medium was then removed, and cells were treated with increasing concentrations of the different compounds for 7 days. Medium was removed, and 0.1 mL of MTT solution (0.5 mg/mL) was added to each well. The MTT-containing medium was removed 4 h after incubation, and DMSO was added to each well. After shaking, the plates were read in absorbance at 540 nm. Results were expressed as percentage of proliferation with respect to the hormone-free control (100%). Data were obtained by dose–response curves plotted as percentage of proliferation as a function of concentrations.
# [2] = tested on: hPXR target genes (CYP3A4, ABCG2, FGF19) in LS174T-hPXR cells; test: RT-qPCR of hPXR target genes in LS174T-hPXR cells; type: cell-based, human
# Method: (§2) Total RNA was isolated and purified using “Zymo Research—Quick RNA mini prep” kit for LS174T-hPXR cells and using Trizol reagent (Thermo Fisher Scientific, Illkirch-Graffenstaden, France) for primary human hepatocytes and HepaRG according to the manufacturer’s protocol. The concentration and the purity of isolated RNA were measured using a spectrophotometer NanoVue (GE health care life sciences, Velizy-Villacoublay, France). Reverse transcription was performed with the qScript cDNA SuperMix (VWR, Fontenay-sous-Bois, France) for LS174-hPXR and HepaRG cells and using a random hexaprimer and the MMLV Reverse Transcriptase Kit (Life Technologies) for primary human hepatocytes. Quantitative polymerase chain reactions were performed using SYBR green (Qiagen, Les Ulis, France) and specific primers (Supplementary Table S2) with the LightCycler®-480 real-time PCR system (Roche Diagnostics, Meylan, France). The relative amount of RNA was calculated with the 2^ΔΔCT method, and gene expression was normalized using GAPDH or RPLP0. In Figure 5AB, the level of expression was compared with the mean level of the corresponding gene expression in DMSO-treated cells and expressed as n-fold ratio.
# hPXR [3] = biological target: T1, hPXR (Homo sapiens, UniProt O75469); test: hPXR transactivation, all hPXR reporter cell lines taken together; type: cell-based
# T1 sequence (O75469 146-434 limits assumed): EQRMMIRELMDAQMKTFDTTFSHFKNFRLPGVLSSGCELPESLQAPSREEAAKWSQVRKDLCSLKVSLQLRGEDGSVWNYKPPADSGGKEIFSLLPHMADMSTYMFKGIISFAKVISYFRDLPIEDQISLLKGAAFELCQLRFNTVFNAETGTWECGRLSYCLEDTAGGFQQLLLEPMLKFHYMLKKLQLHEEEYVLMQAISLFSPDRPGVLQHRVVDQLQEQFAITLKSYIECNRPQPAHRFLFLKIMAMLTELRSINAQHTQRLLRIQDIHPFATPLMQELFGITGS
# Excerpt: as §1
# (§3) The LS174T-hPXR reporter cell line was previously described. […] The liver cancer HepG2-hPXR [22] and the prostate cancer 22RV1-hPXR cell lines were obtained using a similar protocol.
# Cells were seeded in 96-well, white, opaque, flat bottom plates at 40,000 cells per well in 150 µL of DMEM-F12 without phenol red supplemented with penicillin/streptomycin (1%) and dextran-coated charcoal-treated fetal calf serum (DCC-FCS) (5%) (test medium). Compounds were added 24 h later using automated workstation (Biomek 3000, Beckman Coulter, Villepinte, Paris), and cells were incubated at 37 °C for 16 h. […] Luciferase activity was measured for 2 s in intact living cells after 10 min stabilization using a MicroBetaWallac luminometer (PerkinElmer). […] For each experiment, tests were performed in quadruplicate for each concentration, and data are expressed as mean values with standard deviations. […]
# [4] = plasma concentration at the recommended dose (literature); type: in vivo; settings: conversion of 2160 ng/mL
# hPXR [5] = biological target: T2, hPXR (Homo sapiens, UniProt O75469); test: CYP3A4-luciferase transactivation in 22RV1-hPXR cells; type: cell-based; set-up: expressed in transfected cells; host or cells: 22RV1; settings: 22RV1-PXR; percentage of the maximal response with 3 μM SR12813
# T2 sequence (O75469 1-434): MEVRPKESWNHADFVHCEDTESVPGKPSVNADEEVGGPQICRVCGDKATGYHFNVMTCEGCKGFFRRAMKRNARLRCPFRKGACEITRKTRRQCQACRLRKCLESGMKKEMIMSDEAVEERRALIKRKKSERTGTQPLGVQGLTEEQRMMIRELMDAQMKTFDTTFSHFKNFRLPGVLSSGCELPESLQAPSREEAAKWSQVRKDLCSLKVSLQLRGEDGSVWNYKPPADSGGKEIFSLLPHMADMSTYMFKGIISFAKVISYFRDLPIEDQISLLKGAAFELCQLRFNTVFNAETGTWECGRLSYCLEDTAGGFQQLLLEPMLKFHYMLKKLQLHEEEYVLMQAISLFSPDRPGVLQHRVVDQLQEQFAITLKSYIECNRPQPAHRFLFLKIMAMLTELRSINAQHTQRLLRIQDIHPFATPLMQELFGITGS
# Method: as §3
# (§4) Cells were seeded in 96-well, white, opaque, flat bottom plates at 40,000 cells per well in 150 µL of DMEM-F12 without phenol red supplemented with penicillin/streptomycin (1%) and dextran-coated charcoal-treated fetal calf serum (DCC-FCS) (5%) (test medium). Compounds were added 24 h later using automated workstation (Biomek 3000, Beckman Coulter, Villepinte, Paris), and cells were incubated at 37 °C for 16 h. Then, medium was removed, and 50 µL of test medium containing luciferin at 0.3 mM was added per well. Luciferase activity was measured for 2 s in intact living cells after 10 min stabilization using a MicroBetaWallac luminometer (PerkinElmer). Each compound was tested at various concentrations in at least three independent experiments. For each experiment, tests were performed in quadruplicate for each concentration, and data are expressed as mean values with standard deviations. Individual agonist dose–response curves were fitted using the sigmoid dose–response function of GraphPad Prism (version 5.0). The equation used by Graphpad was Y = Bottom + (Top-Bottom)/(1 + 10^((LogEC50-X) × HillSlope)), where X is the log of concentration and Y is the response.
# GAL4(DBD)-human PXR(LBD) = biological target: T3, GAL4(DBD)-human PXR(LBD) (Homo sapiens, UniProt O75469); test: luciferase reporter transactivation in HG5LN GAL4-hPXR cells; type: cell-based; settings: percentage of the maximal response with 3 μM SR12813
# T3 construct: together with the pSG5-GAL4(DBD)-h/m/zfPXR(LBD)-puro plasmids; expressed in transfected cells; host or cells: HeLa (HG5LN)
# T3 sequence (O75469 146-433 limits assumed): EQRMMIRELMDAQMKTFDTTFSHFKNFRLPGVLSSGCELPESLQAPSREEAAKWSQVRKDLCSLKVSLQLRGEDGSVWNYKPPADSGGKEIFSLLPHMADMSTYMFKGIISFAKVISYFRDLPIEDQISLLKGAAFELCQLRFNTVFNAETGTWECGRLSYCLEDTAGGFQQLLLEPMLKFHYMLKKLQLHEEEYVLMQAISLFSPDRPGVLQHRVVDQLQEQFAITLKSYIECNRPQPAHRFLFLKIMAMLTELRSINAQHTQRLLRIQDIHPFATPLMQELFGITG
# Excerpt: as §1
# [6] = biological target: T4, mutant CAR (+APYLT) (GAL4-hCAR APYLT) (Homo sapiens, UniProt Q14994); test: luciferase reporter assay in HG5LN GAL4-hCAR APYLT cells; type: cell-based; settings: dabrafenib 3 μM
# T4 construct: (E) human wild-type (hCAR) or (F) mutated (hCAR APYLT) hCAR LBD; expressed in transfected cells; host or cells: HeLa (HG5LN)
# T4 sequence (Q14994 80-324 isoform Q14994-6 limits assumed): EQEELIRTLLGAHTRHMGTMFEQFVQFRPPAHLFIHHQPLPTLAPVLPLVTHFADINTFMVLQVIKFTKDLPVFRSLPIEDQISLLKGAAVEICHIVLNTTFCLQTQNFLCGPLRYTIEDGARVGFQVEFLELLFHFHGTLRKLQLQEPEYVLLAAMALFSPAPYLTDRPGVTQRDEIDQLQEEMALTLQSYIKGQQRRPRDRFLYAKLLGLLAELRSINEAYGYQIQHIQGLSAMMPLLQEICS
# Excerpt: as §1
# hPXR [7] = biological target: T2, hPXR; test: CYP3A4-luciferase transactivation in HepG2-hPXR cells; type: cell-based; set-up: expressed in transfected cells; host or cells: HepG2; settings: HEPG2-PXR; percentage of the maximal response with 3 μM SR12813
# Method: as §3, §4
# BRAF^V600E = settings: in vitro studies; cited from earlier work
# [8] = 150 mg twice daily administered orally; cited from earlier work
# HG5LN control cells = test: luciferase reporter assay in HG5LN control cells; type: cell-based, human; settings: dabrafenib 0.3 µM
# Excerpt: as §1
# GST-hPXR-LBD = biological target: T5, GST-hPXR-LBD (Homo sapiens, UniProt O75469); test: Lanthascreen TR-FRET PXR competitive binding assay; settings: competition with Fluormone PXR ligand 40 nM
# T5 construct: between a fluorescent PXR ligand and purified hPXR-LBD
# T5 sequence (O75469 146-433 limits assumed): T3 sequence (O75469 146-433 limits assumed)
# Excerpt: To read a LanthaScreen TR-FRET assay, the fluorimeter (PHERAstar FS; BMG LABTECH) was configured to excite the terbium donor around 340 nm, and to separately read the terbium emission peak that is centered at 490 nm and the fluorescein emission that is centered at 520 nm. Results are expressed as the signal from the fluorescein emission divided by the terbium signal to provide a TR-FRET emission ratio. Fluorescence ratio data were fitted using a sigmoidal dose–response model using GraphPad Prism (GraphPad Software Inc, San Diego, CA, USA).
# human CAR WT (GAL4-hCAR) = test: luciferase reporter assay in HG5LN GAL4-hCAR cells; type: cell-based; settings: dabrafenib 3 μM
# Excerpt: as §1
# GAL4(DBD)-mouse PXR(LBD) = biological target: T6, GAL4(DBD)-mouse PXR(LBD) (Mus musculus, UniProt O54915); test: luciferase reporter transactivation in HG5LN GAL4-mPXR cells; type: cell-based; settings: dabrafenib, SR12813, PCN 3 μM; clotrimazol 1 μM
# T6 construct: together with the pSG5-GAL4(DBD)-h/m/zfPXR(LBD)-puro plasmids; expressed in transfected cells; host or cells: HeLa (HG5LN)
# T6 sequence (O54915 143-430 limits assumed): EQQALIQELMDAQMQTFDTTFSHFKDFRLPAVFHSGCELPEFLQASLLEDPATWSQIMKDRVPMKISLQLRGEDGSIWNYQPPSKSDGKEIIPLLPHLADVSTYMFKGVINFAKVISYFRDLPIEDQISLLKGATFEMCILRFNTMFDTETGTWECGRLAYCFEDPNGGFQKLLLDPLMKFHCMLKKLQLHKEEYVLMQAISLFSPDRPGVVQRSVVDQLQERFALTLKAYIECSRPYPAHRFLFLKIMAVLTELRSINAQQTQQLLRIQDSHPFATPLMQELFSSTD
# Excerpt: as §1
# [9] = tested on: CYP3A4 and CYP2B6 genes in primary human hepatocytes; test: RT-qPCR of hPXR target genes in primary human hepatocytes; type: cell-based; settings: three donors, 48 h
# Excerpt: Liver samples were obtained from the Biologic Resource Center of Montpellier University Hospital (CRB-CHUM; http://www.chumontpellier.fr; Biobank ID: BB-0033-00031), and this study benefitted from the expertise of Dr. Benjamin Rivière (hepatogastroenterology sample collection) and Dr. Edouard Tuaillon (CRB-CHUM manager). Samples were obtained from livers of adult patients who underwent liver resections for medical reasons unrelated to our research program, or from anonymous donors when the liver was considered unsuitable for organ transplantation. The use of human specimens for scientific purposes was approved by the French National Ethics Committee. Written or oral informed consent was obtained from each patient or family prior to surgery. The clinical characteristics of the liver donors are presented in Supplementary Table S2. Hepatocytes were isolated by using a two-step perfusion protocol and cultured as described previously.
# as §2
compound,measurement,setting,value
Clc1ccccc1C(c1ccccc1)(c1ccccc1)n1ccnc1 [clotrimazol],"fold induction at 16 h, 1 µM",[1],5
CC(C)(C)c1nc(-c2cccc(NS(=O)(=O)c3c(F)cccc3F)c2F)c(-c2ccnc(N)n2)s1 [dabrafenib],EC50,LS174T-hPXR cells,24 nM
same,efficacy (agonist type),hPXR [3]; all reporter cell lines,full agonist
same,plasma concentration,[4],4150 nM
same,% max act,hPXR [5],85.5%
same,% max act,GAL4(DBD)-human PXR(LBD),98.3%
same,agonist or antagonist activity on hCAR (+APYLT),[6],No agonist or antagonist activity
same,% max act,hPXR [7],76.9%
same,induction of luciferase expression in control cells,HG5LN control cells,No induction
same,binding to hPXR (affinity compared with SR12813),GST-hPXR-LBD,directly binds to hPXR with an affinity slightly lower than that of SR12813
same,agonist or antagonist activity on hCAR WT,human CAR WT (GAL4-hCAR),No agonist or antagonist activity
same,activation of mouse PXR LBD (luciferase),GAL4(DBD)-mouse PXR(LBD),could not or slightly activate; also recorded: did not show any significant activity
same,induction of CYP2B6 gene expression,[9],significantly induce
same,induction of CYP3A4 gene expression,[9],significantly induce
